Earlier results in patent publication US20220000160A1, “FLAVONOID DELIVERY SYSTEM” (priority 2019, published 2022).

For `C[C@@H]1O[C@@H](OC[C@H]2O[C@@H](Oc3c(-c4ccc(O)c(O)c4)oc4cc(O)cc(O)c4c3=O)[C@H](O)[C@@H](O)[C@@H]2O)[C@H](O)[C@H](O)[C@H]1O` [Free rutin, quercetin-3-rhamnosylglucoside], the solubility in ethanol is listed as “about 4 % w/v”.
